From PubChem BioAssay (NCI)
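Growth conditions: 96-well plates. Treatment: test compound, 48 hours, 5 concentrations. Analysis: linear interpolation between bracketing concentrations; unreached endpoints set to highest concentration. GI50 is the concentration that inhibits growth by half. The concentration for full growth arrest is given as TGI.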

Experiments:
Assay in all cases: NCI anticancer screen, dose series, 48 h
HCT-116 colon = system: HCT-116 colon
CAKI-1 renal = system: CAKI-1 renal
SF-295 CNS = system: SF-295 CNS
COLO 205 colon = system: COLO 205 colon
SW-620 colon = system: SW-620 colon
CCRF-CEM leukemia = system: CCRF-CEM leukemia
SK-MEL-2 melanoma = system: SK-MEL-2 melanoma
KM12 colon = system: KM12 colon
U251 CNS = system: U251 CNS
BT-549 breast = system: BT-549 breast
MOLT-4 leukemia = system: MOLT-4 leukemia
OVCAR-4 ovarian = system: OVCAR-4 ovarian
HL-60(TB) leukemia = system: HL-60(TB) leukemia
HS 578T breast = system: HS 578T breast
RPMI-8226 leukemia = system: RPMI-8226 leukemia
SK-OV-3 ovarian = system: SK-OV-3 ovarian
UACC-257 melanoma = system: UACC-257 melanoma
NCI-H460 lung = system: NCI-H460 lung
UACC-62 melanoma = system: UACC-62 melanoma
HCC-2998 colon = system: HCC-2998 colon
OVCAR-3 ovarian = system: OVCAR-3 ovarian
OVCAR-8 ovarian = system: OVCAR-8 ovarian
M14 melanoma = system: M14 melanoma
SK-MEL-28 melanoma = system: SK-MEL-28 melanoma
LOX IMVI melanoma = system: LOX IMVI melanoma
SR leukemia = system: SR leukemia
RXF 393 renal = system: RXF 393 renal
MCF7 breast = system: MCF7 breast
T-47D breast = system: T-47D breast
MDA-MB-231 breast = system: MDA-MB-231 breast
SNB-19 CNS = system: SNB-19 CNS
IGROV1 ovarian = system: IGROV1 ovarian
PC-3 prostate = system: PC-3 prostate
SK-MEL-5 melanoma = system: SK-MEL-5 melanoma
SF-268 CNS = system: SF-268 CNS
NCI/ADR-RES ovarian = system: NCI/ADR-RES ovarian
UO-31 renal = system: UO-31 renal
NCI-H23 lung = system: NCI-H23 lung
HOP-92 NSCLC = system: HOP-92 NSCLC
TK-10 renal = system: TK-10 renal
MDA-MB-435 = system: MDA-MB-435
786-0 renal = system: 786-0 renal
HCT-15 colon = system: HCT-15 colon
A498 renal = system: A498 renal
ACHN renal = system: ACHN renal
A549 NSCLC = system: A549 NSCLC
DU-145 prostate = system: DU-145 prostate
EKVX NSCLC = system: EKVX NSCLC
NCI-H522 lung = system: NCI-H522 lung
OVCAR-5 ovarian = system: OVCAR-5 ovarian
HT29 colon = system: HT29 colon
K-562 leukemia = system: K-562 leukemia
SF-539 CNS = system: SF-539 CNS
NCI-H226 lung = system: NCI-H226 lung
HOP-62 NSCLC = system: HOP-62 NSCLC
SN12C renal = system: SN12C renal
MALME-3M melanoma = system: MALME-3M melanoma
SNB-75 CNS = system: SNB-75 CNS

NC(=O)c1c(NC(=O)c2ccc(C3CCCCC3)cc2)sc2c1CCC(=O)C2
GI50 (HCT-116 colon): 108 nM
TGI (HCT-116 colon): 1300 nM
GI50 (CAKI-1 renal): 248 nM
TGI (CAKI-1 renal): 1470 nM
GI50 (SF-295 CNS): 681 nM
TGI (SF-295 CNS): 2500 nM
GI50 (COLO 205 colon): 208 nM
TGI (COLO 205 colon): 650 nM
GI50 (SW-620 colon): 142 nM
TGI (SW-620 colon): 1660 nM
GI50 (CCRF-CEM leukemia): 142 nM
GI50 (SK-MEL-2 melanoma): 980 nM
TGI (SK-MEL-2 melanoma): 3530 nM
GI50 (KM12 colon): 349 nM
TGI (KM12 colon): 5260 nM
GI50 (U251 CNS): 246 nM
TGI (U251 CNS): 1620 nM
GI50 (BT-549 breast): 283 nM
TGI (BT-549 breast): 1390 nM
GI50 (MOLT-4 leukemia): 357 nM
TGI (MOLT-4 leukemia): > 22400 nM
GI50 (OVCAR-4 ovarian): 377 nM
TGI (OVCAR-4 ovarian): 1710 nM
GI50 (HL-60(TB) leukemia): 307 nM
TGI (HL-60(TB) leukemia): > 30800 nM
GI50 (HS 578T breast): 383 nM
TGI (HS 578T breast): 5710 nM
GI50 (RPMI-8226 leukemia): 135 nM
TGI (RPMI-8226 leukemia): 596 nM
GI50 (SK-OV-3 ovarian): 1180 nM
TGI (SK-OV-3 ovarian): 5890 nM
GI50 (UACC-257 melanoma): 725 nM
TGI (UACC-257 melanoma): 3230 nM
GI50 (NCI-H460 lung): 645 nM
TGI (NCI-H460 lung): 3640 nM
GI50 (UACC-62 melanoma): 276 nM
TGI (UACC-62 melanoma): 1430 nM
GI50 (HCC-2998 colon): 1100 nM
TGI (HCC-2998 colon): 5410 nM
GI50 (OVCAR-3 ovarian): 389 nM
TGI (OVCAR-3 ovarian): 2620 nM
GI50 (OVCAR-8 ovarian): 380 nM
TGI (OVCAR-8 ovarian): > 20200 nM
GI50 (M14 melanoma): 371 nM
TGI (M14 melanoma): 1870 nM
GI50 (SK-MEL-28 melanoma): 509 nM
TGI (SK-MEL-28 melanoma): 2150 nM
GI50 (LOX IMVI melanoma): 186 nM
TGI (LOX IMVI melanoma): 1010 nM
GI50 (SR leukemia): 108 nM
GI50 (RXF 393 renal): 301 nM
TGI (RXF 393 renal): 1190 nM
GI50 (MCF7 breast): 292 nM
TGI (MCF7 breast): 2530 nM
GI50 (T-47D breast): 193 nM
TGI (T-47D breast): 2340 nM
GI50 (MDA-MB-231 breast): 384 nM
TGI (MDA-MB-231 breast): 1750 nM
GI50 (SNB-19 CNS): 426 nM
TGI (SNB-19 CNS): 3010 nM
GI50 (IGROV1 ovarian): 434 nM
TGI (IGROV1 ovarian): 2030 nM
GI50 (PC-3 prostate): 130 nM
TGI (PC-3 prostate): 1590 nM
GI50 (SK-MEL-5 melanoma): 630 nM
TGI (SK-MEL-5 melanoma): 1770 nM
GI50 (SF-268 CNS): 532 nM
TGI (SF-268 CNS): 3460 nM
GI50 (NCI/ADR-RES ovarian): 360 nM
TGI (NCI/ADR-RES ovarian): 5040 nM
GI50 (UO-31 renal): 177 nM
TGI (UO-31 renal): 690 nM
GI50 (NCI-H23 lung): 314 nM
TGI (NCI-H23 lung): 4340 nM
GI50 (HOP-92 NSCLC): 246 nM
TGI (HOP-92 NSCLC): 1040 nM
GI50 (TK-10 renal): 373 nM
TGI (TK-10 renal): 2300 nM
GI50 (MDA-MB-435): 611 nM
TGI (MDA-MB-435): 2170 nM
GI50 (786-0 renal): 663 nM
TGI (786-0 renal): 2870 nM
GI50 (HCT-15 colon): 155 nM
TGI (HCT-15 colon): 1260 nM
GI50 (A498 renal): 1990 nM
TGI (A498 renal): 5840 nM
GI50 (ACHN renal): 164 nM
TGI (ACHN renal): 598 nM
GI50 (A549 NSCLC): 419 nM
TGI (A549 NSCLC): 6080 nM
GI50 (DU-145 prostate): 1730 nM
TGI (DU-145 prostate): > 100000 nM
GI50 (EKVX NSCLC): 502 nM
TGI (EKVX NSCLC): 3210 nM
GI50 (NCI-H522 lung): 227 nM
TGI (NCI-H522 lung): 1450 nM
GI50 (OVCAR-5 ovarian): 402 nM
TGI (OVCAR-5 ovarian): 1980 nM
GI50 (HT29 colon): 268 nM
TGI (HT29 colon): 1810 nM
GI50 (K-562 leukemia): 122 nM
TGI (K-562 leukemia): > 100000 nM
GI50 (SF-539 CNS): 211 nM
TGI (SF-539 CNS): 826 nM
GI50 (NCI-H226 lung): 705 nM
TGI (NCI-H226 lung): 2610 nM
GI50 (HOP-62 NSCLC): 1480 nM
TGI (HOP-62 NSCLC): 24100 nM
GI50 (SN12C renal): 438 nM
TGI (SN12C renal): 2830 nM
GI50 (MALME-3M melanoma): 314 nM
TGI (MALME-3M melanoma): 1190 nM
GI50 (SNB-75 CNS): 1390 nM
TGI (SNB-75 CNS): 3420 nM
